Test results taken from article PMC10046037, “GABRG2 Variants Associated with Febrile Seizures” (Biomolecules, 2023).

Target: T1, α1β3γ2 GABAA receptor, γ2R224X variant (Homo sapiens, UniProt P14867+P28472)
T1 construct: expressed in transfected cells; host or cells: HEK293T
T1 sequence (P14867 28-456): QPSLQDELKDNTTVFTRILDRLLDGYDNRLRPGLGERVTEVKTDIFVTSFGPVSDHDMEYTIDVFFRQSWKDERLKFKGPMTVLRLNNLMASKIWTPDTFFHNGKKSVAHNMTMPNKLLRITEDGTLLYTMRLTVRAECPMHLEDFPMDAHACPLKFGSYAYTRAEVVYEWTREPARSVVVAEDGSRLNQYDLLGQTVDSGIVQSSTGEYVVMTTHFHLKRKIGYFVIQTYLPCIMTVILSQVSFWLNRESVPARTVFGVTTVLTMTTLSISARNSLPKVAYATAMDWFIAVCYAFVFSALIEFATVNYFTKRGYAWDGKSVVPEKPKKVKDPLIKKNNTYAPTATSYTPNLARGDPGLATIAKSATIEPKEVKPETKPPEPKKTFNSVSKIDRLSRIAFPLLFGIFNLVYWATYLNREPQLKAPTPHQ
T1 sequence (P28472 1-473 isoform P28472-2): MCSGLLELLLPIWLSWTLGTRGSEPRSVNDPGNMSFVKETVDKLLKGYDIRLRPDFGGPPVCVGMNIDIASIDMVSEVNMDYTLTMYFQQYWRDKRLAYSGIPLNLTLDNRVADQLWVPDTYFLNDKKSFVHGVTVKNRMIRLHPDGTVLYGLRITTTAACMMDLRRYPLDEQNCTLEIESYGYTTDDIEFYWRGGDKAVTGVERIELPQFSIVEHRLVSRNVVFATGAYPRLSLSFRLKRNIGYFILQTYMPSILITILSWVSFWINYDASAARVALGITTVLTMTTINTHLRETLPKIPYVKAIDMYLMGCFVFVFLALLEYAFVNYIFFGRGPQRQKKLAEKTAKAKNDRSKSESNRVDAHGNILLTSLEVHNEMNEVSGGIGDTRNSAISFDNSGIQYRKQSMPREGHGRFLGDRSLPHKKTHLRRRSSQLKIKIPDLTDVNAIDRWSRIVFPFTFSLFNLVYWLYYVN
Assay: Automated patch clamp of GABA-elicited currents (SyncroPatch 384PE), γ2R224X
Format: cell-based
Settings: mean
Method: The coding sequences of human α1 (GABRA1, NM_000806), β3 (GABRB3, NM_021912), and γ2 (GABRG2, NM_198904.2) GABAAR subunits were subcloned into the pcDNA3.1 expression vectors (Invitrogen, Waltham, MA, USA).
HEK293T cells (ATCC, CRL-11268) were cultured at 37 °C in a humidified 5% CO2 incubator and maintained in Dulbecco’s modified Eagle’s medium (Invitrogen) supplemented with 10% fetal bovine serum (Life Technologies, Carlsbad, CA, USA), and 100 IU/mL of penicillin/streptomycin (Life Technologies). For the expression experiments, 4 × 10^5 cells were transfected using polyethylenimine (PEI) reagent (40 kD, Polysciences, Warrington, PA, USA) at a DNA: to transfection reagent ratio of 1:2.5 and harvested 36 h after transfection. To express WT and variant α1β3γ2 receptors, a total of 3 µg of α1, β3, and γ2 (WT or mutant) subunit cDNAs were transfected at a ratio of 1:1:1 into 60 mm culture dishes. For the mock-transfected condition, an empty pcDNA3.1 vector was added for a final cDNA transfection amount of 3 μg. For the electrophysiology experiments, 2.5 × 10^5 cells were plated in 100 mm culture dishes and transfected after 24 h with 3 μg of cDNA of each α1, β3, γ2 (wild-type or mutant) subunit, using X-tremeGENE HP DNA transfection Reagent (Roche Diagnostics, Basel, Switzerland), following the manufacturer’s protocol. Recordings were obtained forty-eight hours after transfection.
Whole-cell patch clamp recordings were conducted according to the manufacturer’s standard procedure for the SyncroPatch 384 [31]. Whole-cell voltage-clamp recordings were performed at room temperature on HEK293T cells 48 h after transfection with GABAAR subunits, using the SyncroPatch 384PE (Nanion Technologies, Munich, Germany). Cells, at a concentration of 400,000 cells/mL, were harvested in suspension in external solution containing 140 mM of NaCl, 2 mM of CaCl2, 4 mM of KCl, 1 mM of MgCl2, 5 mM of glucose, and 10 mM of HEPES (pH 7.4 with NaOH, 298 mOsm). The cells were loaded in a multi-hole (4 holes per well) 384-well Nanion patch clamp (NPC) chip with a thick borosilicate glass bottom and an average resistance pore size of […]. Built-in electrophysiological protocols were used, and the data were digitized using PatchControl 384 (Nanion Technologies) application. Using PatchControl 384, electrophysiological parameters, such as seal resistance, capacitance, and series resistance, were determined for each well after the application of a test pulse, and subsequently monitored over time. […] The currents were normalized to the maximal response of each well, and the concentration–response curves were calculated from single-point additions. The EC50 values for each variant or wild-type receptor were calculated across multiple wells for each experimental condition.

NCCCC(=O)O [GABA, γ-aminobutyric acid]
Deactivation (1 mM GABA for 5 ms, HEK293T, -80 mV): 350.1 ms
IMAX (maximal GABA-evoked peak current) (1 mM GABA for 5 ms, HEK293T): 0.85 nA
IMAX variant/IMAX WT (1 mM GABA): 42.52%
Rise Time (10–90% rise time, 1 mM GABA for 5 ms, HEK293T): 72.64 ms
